Measured values reported in patent publication US20260274891A1, “¿ OPIOID RECEPTOR AGONIST AND USE THEREOF” (CHENGDU AODA BIOTECHNOLOGY CO., LTD., priority 2023, published 2026).
Read-outs that look alike come from different tables or passages of the source. Bridge positions count the residues as written; N and C are the ends. Square brackets hold non-standard residues; d marks the D form. Side chains are listed from the residue outwards. Peptide text beside a SMILES is read from it. I, II: the chains in the order shown. * marks the point of attachment. X3 = NCCCC[C@@H](NC(=O)[C@@H](CCCCN)NC(=O)C1(N)CCN(*)CC1)C(=O)O; X12 = CCOc1ccc(C[C@@H](NC(=O)[C@H](N)Cc2ccccc2)C(=O)*)cc1; Piperidin1yl(4-NH2,4-COOH) = NC1(C(=O)O)CCN(*)CC1; X6 = NCCCC[C@H](NC(=O)C1(N)CCN(*)CC1)C(N)=O; dAla(cPr) = N[C@H](CC1CC1)C(=O)O; Trifluoroethyl = FC(F)(F)C*; Api = NC1(C(=O)O)CCNCC1; iPr = CC(C)*

Target: T1, human κ opioid receptor (OPRK1) (Homo sapiens, UniProt P41145)
T1 construct: expressed in transfected cells; host or cells: CHO-K1
Assay: Determination of activities of κ receptor agonists: inhibition of forskolin-stimulated cAMP release (HTRF) in stably transfected CHO-K1 cells
Type: cell-based
Details: for Relative Activity %: relative to Difelikefalin = 100.0
Source text: Gi-coupled human κ opioid receptor (OPRK1), upon stimulation with its specific opioid receptor agonists, can inhibit the intracellular adenylate cyclase pathway, and decrease cAMP levels. Forskolin can stimulate cAMP release in cell lines highly expressing opioid receptors. By stimulating cell lines stably transfected with opioid receptors, the inhibitory effect of a test compound on forskolin-stimulated cAMP release can be measured to determine the activity of the compound. The relative light units (RLU) from the cells after stimulation with different doses were measured via the homogeneous time-resolved fluorescence technique (HTRF), and the EC50 value of the agonist was subsequently calculated. This activity determination method is a currently commonly used method for determining the activities of opioid receptor agonists at home and abroad.
A CHO-K1 cell line stably expressing opioid receptors was used. Stably transfected cells were stimulated with various concentrations of agonists (under the stimulation of a certain concentration of forskolin). The relative light units from the cells after stimulation with different doses were measured, from which the EC50 value of the agonist was subsequently obtained by calculation.

T1 sequence (P41145 whole entry): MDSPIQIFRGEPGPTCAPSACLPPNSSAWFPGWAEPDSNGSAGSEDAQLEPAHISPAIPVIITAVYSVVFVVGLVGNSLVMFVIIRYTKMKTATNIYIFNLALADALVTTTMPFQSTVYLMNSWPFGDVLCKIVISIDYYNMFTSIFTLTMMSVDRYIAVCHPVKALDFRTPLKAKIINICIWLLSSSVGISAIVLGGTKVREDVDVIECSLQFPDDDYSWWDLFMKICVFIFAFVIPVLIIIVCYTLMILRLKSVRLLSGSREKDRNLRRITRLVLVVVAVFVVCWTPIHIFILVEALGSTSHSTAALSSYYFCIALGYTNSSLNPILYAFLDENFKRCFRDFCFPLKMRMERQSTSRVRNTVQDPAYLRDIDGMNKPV

## CCOc1ccc(C[C@@H](NC(=O)[C@H](N)Cc2ccccc2)C(=O)N[C@H](CC(C)C)C(=O)N[C@H](CCCCN)C(=O)N2CCC(N)(C(=O)N[C@@H](CCCCN)C(N)=O)CC2)cc1 [Compound 3, D-Phe-D-Tyr(Et)-D-Leu-D-Lys-4-aminopiperidine-4-carboxamide-Lys-NH2] (H-[dF][dY](Et)[dL][dK]-X6; N-terminus assumed)
  EC50: 0.0394 nM
  Relative Activity %: 1541.1%

## CCOc1ccc(C[C@@H](NC(=O)[C@H](N)Cc2ccccc2)C(=O)N[C@H](CC(C)C)C(=O)N[C@H](CCCCN)C(=O)N2CCC(N)(C(=O)N[C@H](CCCCN)C(=O)N[C@H](CCCCN)C(=O)N[C@H](CCCCN)C(=O)N[C@H](CCCCN)C(N)=O)CC2)cc1 [Compound 21, D-Phe-D-Tyr(Et)-D-Leu-D-Lys-4-aminopiperidine-4-carboxamide-D-Lys-D-Lys-D-Lys-D-Lys -NH2] (H-[Api]([dK-dL-X12])[dK][dK][dK][dK]-NH2; N-terminus assumed)
  EC50: 0.0501 nM
  Relative Activity %: 1212.0%

## CC(C)C[C@@H](NC(=O)[C@@H](Cc1ccc(OC(C)C)cc1)NC(=O)[C@H](N)Cc1ccccc1)C(=O)N[C@H](CCCCN)C(=O)N1CCC(N)(C(=O)O)CC1 [Compound 98, D-Phe-D-Tyr(Ipr)-D-Leu-D-Lys-4-aminopiperidine-4-carboxamide-OH] (H-[dF][dY](iPr)[dL][dK]-{Piperidin1yl(4-NH2,4-COOH)}; N-terminus assumed)
  EC50: 0.145 nM
  Relative Activity %: 418.2%

## CC(C)C[C@@H](NC(=O)[C@@H](Cc1ccc(N)cc1)NC(=O)[C@H](N)Cc1ccccc1)C(=O)N[C@H](CCCCN)C(=O)N1CCC(N)(C(=O)N[C@H](CCCCN)C(N)=O)CC1 [Compound 141, D-Phe-D-Phe(4-NH2)-D-Leu-D-Lys-4-aminopiperidine-4-carboxamide-D-Lys-NH2]
  EC50: 0.112 nM
  Relative Activity %: 543.1%

## CCOc1ccc(C[C@@H](NC(=O)[C@H](N)Cc2ccccc2)C(=O)N[C@H](CC(C)C)C(=O)N[C@H](CCCCN)C(=O)N2CCC(N)(C(=O)NCC(=O)NCC(=O)N[C@@H](CCCCN)C(N)=O)CC2)cc1 [Compound 51, D-Phe-D-Tyr(Et)-D-Leu-D-Lys-4-aminopiperidine-4-carboxamide-Gly-Gly-Lys-NH2] (I: H-[Api]GGK-NH2 / II: H-[dF][dY](Et)[dL][dK]; amide I:1-II:C; N-terminus assumed)
  EC50: 0.0477 nM
  Relative Activity %: 1273.0%

## CCOc1ccc(C[C@@H](NC(=O)[C@H](N)Cc2ccccc2)C(=O)N[C@H](CC(C)C)C(=O)N[C@H](CCCCN)C(=O)N2CCC(N)(C(=O)N[C@H](CCCCN)C(=O)N[C@H](CCCCN)C(=O)N[C@H](CCCCN)C(N)=O)CC2)cc1 [Compound 19, D-Phe-D-Tyr(Et)-D-Leu-D-Lys-4-aminopiperidine-4-carboxamide-D-Lys-D-Lys-D-Lys-NH2] (I: H-[Api][dK][dK][dK]-NH2 / II: H-[dF][dY](Et)[dL][dK]; amide I:1-II:C; N-terminus assumed)
  EC50: 0.0479 nM
  Relative Activity %: 1267.6%

## CC(C)C[C@@H](NC(=O)[C@@H](Cc1ccc(I)cc1)NC(=O)[C@H](N)Cc1ccccc1)C(=O)N[C@H](CCCCN)C(=O)N1CCC(N)(C(N)=O)CC1 [Compound 121, D-Phe-D-Phe(4-I)-D-Leu-D-Lys-4-aminopiperidine-4-carboxamide-NH2]
  EC50: 0.122 nM
  Relative Activity %: 496.1%

## CCOc1ccc(C[C@@H](NC(=O)[C@H](N)Cc2ccccc2)C(=O)N[C@H](CC(C)C)C(=O)N[C@H](CCCCN)C(=O)N2CCC(N)(C(=O)NCC(=O)NCC(=O)N[C@H](CCCCN)C(=O)O)CC2)cc1 [Compound 54, D-Phe-D-Tyr(Et)-D-Leu-D-Lys-4-aminopiperidine-4-carboxamide-Gly-Gly-D-Lys-OH] (I: H-[Api]GG[dK]-OH / II: H-[dF][dY](Et)[dL][dK]; amide I:1-II:C; N-terminus assumed)
  EC50: 0.0471 nM
  Relative Activity %: 1289.2%

## CCOc1ccc(C[C@@H](NC(=O)[C@H](N)Cc2ccccc2)C(=O)N[C@H](CC(C)C)C(=O)N[C@H](CCCCN)C(=O)N2CCC(N)(C(=O)NCC(=O)NCC(=O)NCC(=O)NCC(=O)N[C@H](CCCCN)C(N)=O)CC2)cc1 [Compound 61, D-Phe-D-Tyr(Et)-D-Leu-D-Lys-4-aminopiperidine-4-carboxamide-Gly-Gly-Gly-Gly-D-Lys-NH2] (H-[Api]([dK-dL-X12])GGGG[dK]-NH2; N-terminus assumed)
  EC50: 0.0706 nM
  Relative Activity %: 860.1%

## CCOc1ccc(C[C@@H](NC(=O)[C@H](N)Cc2ccccc2)C(=O)N[C@H](CC(C)C)C(=O)N[C@H](CCCCN)C(=O)N2CCC(N)(C(=O)NCC(=O)NCC(=O)NCC(=O)NCC(=O)N[C@@H](CCCCN)C(N)=O)CC2)cc1 [Compound 59, D-Phe-D-Tyr(Et)-D-Leu-D-Lys-4-aminopiperidine-4-carboxamide-Gly-Gly-Gly-Gly-Lys-NH2] (H-[Api]([dK-dL-X12])GGGGK-NH2; N-terminus assumed)
  EC50: 0.0694 nM
  Relative Activity %: 874.9%

## CCOc1ccc(C[C@@H](NC(=O)[C@H](N)Cc2ccccc2)C(=O)N[C@H](CC2CC2)C(=O)N[C@H](CCCCN)C(=O)N2CCC(N)(C(=O)N[C@@H](CCCCN)C(N)=O)CC2)cc1 [Compound 69, D-Phe-D-Tyr(Et)-D-cyclopropylalanine-D-Lys-4-aminopiperidine-4-carboxamide-Lys-NH2] (H-[dF][dY](Et)[dAla(cPr)][dK]-X6; N-terminus assumed)
CHO-K1 cell line stably expressing opioid receptors, forskolin-stimulated cAMP, HTRF, read-out: EC50
  EC50: 0.0424 nM
  Relative Activity %: 1432.1%

## CC(C)C[C@@H](NC(=O)[C@@H](Cc1ccc(OCC(F)(F)F)cc1)NC(=O)[C@H](N)Cc1ccccc1)C(=O)N[C@H](CCCCN)C(=O)N1CCC(N)(C(=O)O)CC1 [Compound 92, D-Phe-D-Tyr(CH2CF3)-D-Leu-D-Lys-4-aminopiperidine-4-carboxamide-OH] (H-[dF][dY](Trifluoroethyl)[dL][dK]-{Piperidin1yl(4-NH2,4-COOH)}; N-terminus assumed)
  EC50: 0.109 nM
  Relative Activity %: 558.6%

## CCOc1ccc(C[C@@H](NC(=O)[C@H](N)Cc2ccccc2)C(=O)N[C@H](CC(C)C)C(=O)N[C@H](CCCCN)C(=O)N2CCC(N)(C(=O)NCC(=O)NCC(=O)NCC(=O)N[C@H](CCCCN)C(N)=O)CC2)cc1 [Compound 57, D-Phe-D-Tyr(Et)-D-Leu-D-Lys-4-aminopiperidine-4-carboxamide-Gly-Gly-Gly-D-Lys-NH2] (H-[Api]([dK-dL-X12])GGG[dK]-NH2; N-terminus assumed)
  EC50: 0.0514 nM
  Relative Activity %: 1181.3%

## CC(C)C[C@@H](NC(=O)[C@@H](Cc1ccc(Cl)cc1)NC(=O)[C@H](N)Cc1ccccc1)C(=O)N[C@H](CCCCN)C(=O)N1CCC(N)(C(=O)N[C@H](CCCCN)C(=O)O)CC1 [Compound 114, D-Phe-D-Phe(4-C1)-D-Leu-D-Lys-4-aminopiperidine-4-carboxamide-D-Lys-OH]
  EC50: 0.0515 nM
  Relative Activity %: 1179.0%

## CCc1ccc(C[C@@H](NC(=O)[C@H](N)Cc2ccccc2)C(=O)N[C@H](CC(C)C)C(=O)N[C@H](CCCCN)C(=O)N2CCC(N)(C(=O)N[C@@H](CCCCN)C(N)=O)CC2)cc1 [Compound 131, D-Phe-D-Phe(4-Et)-D-Leu-D-Lys-4-aminopiperidine-4-carboxamide-Lys-NH2]
  EC50: 0.134 nM
  Relative Activity %: 454.5%

## CCOc1ccc(C[C@@H](NC(=O)[C@H](N)Cc2ccccc2)C(=O)N[C@H](CC(C)C)C(=O)N[C@H](CCCCN)C(=O)N2CCC(N)(C(=O)N[C@H](CCCCN)C(=O)N[C@H](CCCCN)C(=O)O)CC2)cc1 [Compound 18, D-Phe-D-Tyr(Et)-D-Leu-D-Lys-4-aminopiperidine-4-carboxamide-D-Lys-D-Lys-OH] (H-[dF][dY](Et)[dL][dK]-X3; N-terminus assumed)
  EC50: 0.046 nM
  Relative Activity %: 1320.0%

## CC(C)C[C@@H](NC(=O)[C@@H](Cc1ccc(I)cc1)NC(=O)[C@H](N)Cc1ccccc1)C(=O)N[C@H](CCCCN)C(=O)N1CCC(N)(C(=O)N[C@@H](CCCCN)C(=O)O)CC1 [Compound 124, D-Phe-D-Phe(4-I)-D-Leu-D-Lys-4-aminopiperidine-4-carboxamide-Lys-OH]
  EC50: 0.0558 nM
  Relative Activity %: 1088.2%

## CCc1ccc(C[C@@H](NC(=O)[C@H](N)Cc2ccccc2)C(=O)N[C@H](CC(C)C)C(=O)N[C@H](CCCCN)C(=O)N2CCC(N)(C(=O)N[C@@H](CCCCN)C(=O)O)CC2)cc1 [Compound 132, D-Phe-D-Phe(4-Et)-D-Leu-D-Lys-4-aminopiperidine-4-carboxamide-Lys-OH]
  EC50: 0.13 nM
  Relative Activity %: 465.6%

## CC(C)C[C@@H](NC(=O)[C@@H](Cc1ccc(I)cc1)NC(=O)[C@H](N)Cc1ccccc1)C(=O)N[C@H](CCCCN)C(=O)N1CCC(N)(C(=O)O)CC1 [Compound 122, D-Phe-D-Phe(4-I)-D-Leu-D-Lys-4-aminopiperidine-4-carboxamide-OH]
  EC50: 0.12 nM
  Relative Activity %: 505.6%

## CC(C)C[C@@H](NC(=O)[C@@H](Cc1ccc(I)cc1)NC(=O)[C@H](N)Cc1ccccc1)C(=O)N[C@H](CCCCN)C(=O)N1CCC(N)(C(=O)N[C@@H](CCCCN)C(N)=O)CC1 [Compound 123, D-Phe-D-Phe(4-I)-D-Leu-D-Lys-4-aminopiperidine-4-carboxamide-Lys-NH2]
  EC50: 0.0535 nM
  Relative Activity %: 1135.0%
